Reference: patent publication US7767685B2, “Adenosine A2B receptor antagonists” (King Pharmaceuticals Research and Development, Inc., priority 2006, dated 2010)

How the values were obtained:
[1] = target: T1, human A2A adenosine receptors (Homo sapiens, UniProt P29274); experiment: Displacement of [3H]ZM241385 binding at human A2A adenosine receptors expressed in CHO cells; settings: [3H]ZM241385 displacement, n = 3-6, geometric mean (95% confidence limits), read-out: Ki hA2A
T1 construct: expressed in transfected cells; host or cells: CHO cells (membranes)
Procedure: The human adenosine receptors have been transfected in CHO cells according with the method previously described by Klotz et al. (Naunyn-Schmied. Arch Pharm. 1998, 357: 1-9). Briefly, the cells are grown adherently and maintained in Dulbecco's Modified Eagles Medium with nutrient mixture F12 (DMEM/F12) without nucleosides, containing 10% fetal calf serum, penicillin (100 U/mL), streptomycin (100 μg/mL), L-glutamine (2 mM) and Geneticin (G418, 0.2 mg/ml) at 37° C. in 5% CO2/95% air. For membrane preparation the culture medium is removed and the cells are washed with phosphate-buffered saline and scraped off T75 flasks in ice-cold hypo tonic buffer (5 mM Tris HCl, 1 mM EDTA, pH 7.4). The cell suspension is homogenized with Polytron, the homogenate is spun for 10 min at 1000×g and the supernatant is then centrifuged for 30 min at 100,000×g. The membrane pellet is suspended in 50 mM Tris HCl buffer (pH 7.4) for A1 adenosine receptors, in 50 mM Tris HCl, 10 mM MgCl2 (pH 7.4) for A2A adenosine receptors, in 50 mM Tris HCl, 10 mM MgCl2, 1 mM EDTA (pH 7.4) for A2B and A3 adenosine receptors.
All new synthesized compounds have been tested to evaluate their affinity to human A1, A2A, A2B and A3 adenosine receptors. Displacement experiments of [^3H]-DPCPX to CHO cells transfected with the human recombinant A1 adenosine receptors are performed for 120 min at 25° C. incubating diluted membranes (50 μg of protein/assay) and at least 6-8 different concentrations of examined antagonists (Varani et al., Mol. Pharmacol., 2000, 57: 968-975). Non-specific binding is determined in the presence of 10 μM of CHA and this is always ≦10% of the total binding. Binding of [^3H]-ZM 241385 to CHO cells transfected with the human recombinant A2A adenosine receptors is performed using a suspension of membranes (50 μg of protein/assay) and at least 6-8 different concentrations of studied antagonists for an incubation time of 60 min at 4° C. Non-specific binding is determined in the presence of 1 μM ZM 241385 and is about 20% of total binding. Competition binding experiments of [^3H]-MRE 2029F20 to CHO cells transfected with the human recombinant A2B adenosine receptors are carried out incubating for 120 min at 4° C. diluted membranes (50 μg of protein/assay) and at least 6-8 different concentrations of examined compounds. Non-specific binding is defined as binding in the presence of 1 μM MRE 3029F20 and is about 25% of total binding. Competition binding experiments of [^3H]-MRE 3008F20 to CHO cells transfected with the human recombinant A3 adenosine receptors^5 are carried out incubating for 120 min at 4° C. diluted membranes (50 μg of protein/assay) and at least 6-8 different concentrations of examined ligands. Non-specific binding is defined as binding in the presence of 1 μM MRE 3008F20 and is about 25% of total binding. Bound and free radioactivity are separated by filtering the assay mixture through Whatman GF/B glass fiber filters using a Micro-Mate 196 cell harvester (Packard Instrument Co.). The filter bound radioactivity is counted on a Top Count (efficiency 57%) with Micro-Scint 20.
(§1) The protein concentration is determined according to a Bio-Rad method (Bradford, Anal Biochem. 1976, 72: 248-254) with bovine albumin as a standard reference. Inhibitory binding constant, Ki, values are calculated from those of IC50 according to Cheng & Prusoff equation (Biochem. Pharmacol 1973, 22: 3099-3108): Ki=IC50/(1+[C*]/KD*) where [C*] is the concentration of the radioligand and KD* its dissociation constant. A weighted non linear least-squares curve fitting program LIGAND (Munson et al., Anal. Biochem 1980, 107: 220-239) is used for computer analysis of inhibition experiments Data are expressed as geometric mean with 95% confidence limits in parentheses. Examples of Animal Models

[2] = target: T2, human A2B adenosine receptors (Homo sapiens, UniProt P29275); experiment: cAMP assay in CHO cells expressing human A2B adenosine receptors (antagonism of NECA-induced cAMP); assay type: cell-based; settings: antagonism of NECA (100 nM)-induced cAMP, geometric mean (95% confidence limits), read-out: IC50 hA2B (cAMP assay)
T2 construct: expressed in transfected cells; host or cells: CHO cells (whole cells)
T2 sequence (P29275 1-332): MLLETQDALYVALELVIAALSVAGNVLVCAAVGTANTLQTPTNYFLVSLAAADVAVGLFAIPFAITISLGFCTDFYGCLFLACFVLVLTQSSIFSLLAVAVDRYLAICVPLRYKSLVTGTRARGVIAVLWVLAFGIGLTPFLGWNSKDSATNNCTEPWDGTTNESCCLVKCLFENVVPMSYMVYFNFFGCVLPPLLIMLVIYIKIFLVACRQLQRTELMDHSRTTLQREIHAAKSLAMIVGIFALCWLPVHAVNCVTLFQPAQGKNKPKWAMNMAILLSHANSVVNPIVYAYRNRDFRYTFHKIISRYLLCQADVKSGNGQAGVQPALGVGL
Procedure: Measurement of Cyclic AMP Levels in CHO Cells Transfected with Human A2B Adenosine Receptors
CHO cells transfected with human A2B adenosine receptors are washed with phosphate-buffered saline, diluted trypsine and centrifuged for 10 min at 200 g. The pellet containing the CHO cells (1×10^6 cells/assay) is suspended in 0.5 mL of incubation mixture: NaCl 150 mM, KCl 2.7 mM, NaH2PO4 0.37 mM, MgSO4 1 mM, CaCl2 1 mM, Hepes 5 mM, MgCl2 10 mM, glucose 5 mM, pH 7.4 at 37° C. Then 2.0 IU/mL adenosine deaminase and 0.5 mM 4-(3-butoxy-4-methoxybenzyl)-2-imidazolidinone (Ro 20-1724) as phosphodiesterase inhibitor are added and preincubated for 10 min a shaking bath at 37° C. The potency of antagonists studied are determined by antagonism of NECA (100 nM)-induced stimulation of cyclic AMP levels. The reaction is terminated by the addition of cold 6% thrichloroacetic acid (TCA). The TCA suspension is centrifuged at 2000 g for 10 min at 4° C. and the supernatant is extracted four times with water saturated diethyl ether. The final aqueous solution is tested for cyclic AMP levels by a competition protein binding assay. Samples of cyclic AMP standard ([…]) are added to each test tube containing the incubation buffer (trizma base 0.1 M, aminophylline 8.0 mM, 2-mercaptoethanol 6.0 mM (pH 7.4) and [^3H]cyclic AMP in a total volume of 0.5 mL. The binding protein previously prepared from beef adrenals, is added to the samples previously incubated at 4° C. for 150 min, and after the addition of charcoal are centrifuged at 2000 g for 10 min. The clear supernatant is counted with 4 mL of Atomlight liquid scintillator and counted in a Tri Carb Packard 2500 TR scintillation counter.
as §1

T1 sequence (P29274 whole entry): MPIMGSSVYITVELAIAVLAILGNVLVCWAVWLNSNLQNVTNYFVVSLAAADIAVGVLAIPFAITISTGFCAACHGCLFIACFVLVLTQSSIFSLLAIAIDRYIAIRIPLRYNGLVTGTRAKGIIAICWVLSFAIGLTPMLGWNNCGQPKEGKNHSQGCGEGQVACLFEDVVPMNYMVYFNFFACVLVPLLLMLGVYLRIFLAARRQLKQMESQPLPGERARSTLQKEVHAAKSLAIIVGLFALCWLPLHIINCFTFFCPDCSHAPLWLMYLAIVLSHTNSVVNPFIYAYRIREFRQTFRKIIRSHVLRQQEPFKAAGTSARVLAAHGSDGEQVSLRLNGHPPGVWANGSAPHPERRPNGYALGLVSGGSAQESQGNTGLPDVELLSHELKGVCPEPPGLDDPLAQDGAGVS

| SMILES | Ki [1] | IC50 [2] |
| --- | --- | --- |
| CCCn1c(=O)c2[nH]c(-c3cc(C)n(CC(=O)Nc4ccc(C(C)CC)cc4)n3)nc2n(CCC)c1=O (stereo not shown) [Example 12, 2-[3-(2,6-Dioxo-1,3-dipropyl-2,3,6,7-tetrahydro-1H-purin-8-yl)-5-methyl-pyrazol-1-yl]-N-(4-sec-butylphenyl)-acetamide] | > 1000 nM | > 1000 nM |
| CCCn1c(=O)c2[nH]c(-c3cc(C)n(CC(=O)Nc4cccc(OC)c4)n3)nc2n(CCC)c1=O [Example 14, 2-[3-(2,6-Dioxo-1,3-dipropyl-2,3,6,7-tetrahydro-1H-purin-8-yl)-5-methyl-pyrazol-1-yl]-N-(3-methoxylphenyl)-acetamide] | > 1000 nM | 266 nM |
| CCCn1c(=O)c2[nH]c(-c3cc(C)n(CC(=O)Nc4cccc(Cl)c4)n3)nc2n(CCC)c1=O [Example 15, 2-[3-(2,6-Dioxo-1,3-dipropyl-2,3,6,7-tetrahydro-1H-purin-8-yl)-5-methyl-pyrazol-1-yl]-N-(3-chlorophenyl)-acetamide] | > 1000 nM | 106 nM |
| CCCn1c(=O)c2[nH]c(-c3cc(C)n(CC(=O)Nc4ccc(Cl)c(Cl)c4)n3)nc2n(CCC)c1=O [Example 16, 2-[3-(2,6-Dioxo-1,3-dipropyl-2,3,6,7-tetrahydro-1H-purin-8-yl)-5-methyl-pyrazol-1-yl]-N-(3,4-dichlorophenyl)-acetamide] | > 1000 nM | 188 nM |
| CCCn1c(=O)c2[nH]c(-c3cc(C)n(CC(=O)Nc4ccc(C)cc4)n3)nc2n(CCC)c1=O [Example 17, 2-[3-(2,6-Dioxo-1,3-dipropyl-2,3,6,7-tetrahydro-1H-purin-8-yl)-5-methyl-pyrazol-1-yl]-N-p-tolyl-acetamide] | > 1000 nM | 212 nM |
| CCCn1c(=O)c2[nH]c(-c3nn(CC(=O)Nc4ccc(Cl)cc4)c(C)c3Cl)nc2n(CCC)c1=O [Example 18, 2-[4-Chloro-3-(2,6-dioxo-1,3-dipropyl-2,3,6,7-tetrahydro-1H-purin-8-yl)-5-methyl-pyrazol-1-yl]-N-(4-chlorophenyl)-acetamide] | > 1000 nM | > 1000 nM |
| CCCn1c(=O)c2[nH]c(-c3nn(CC(=O)Nc4ccc(Cl)cc4)c(C)c3Br)nc2n(CCC)c1=O [Example 19, 2-[4-Bromo-3-(2,6-dioxo-1,3-dipropyl-2,3,6,7-tetrahydro-1H-purin-8-yl)-5-methyl-pyrazol-1-yl]-N-(4-chlorophenyl)-acetamide] | > 1000 nM | > 1000 nM |

Continued, values first:

| Ki [1] | IC50 [2] | SMILES |
| --- | --- | --- |
| > 1000 nM | 58 nM | CCCn1c(=O)c2[nH]c(-c3cc(C)n(CC(=O)Nc4ccccc4)n3)nc2n(CCC)c1=O [Example 1, 2-[3-(2,6-Dioxo-1,3-dipropyl-2,3,6,7-tetrahydro-1H-purin-8-yl)-5-methyl-pyrazol-1-yl]-N-phenyl-acetamide] |
| > 1000 nM | 115 nM | CCCn1c(=O)c2[nH]c(-c3cc(C)n(CC(=O)Nc4ccc(I)cc4)n3)nc2n(CCC)c1=O [Example 2, 2-[3-(2,6-Dioxo-1,3-dipropyl-2,3,6,7-tetrahydro-1H-purin-8-yl)-5-methyl-pyrazol-1-yl]-N-(4-iodophenyl)-acetamide] |
| > 1000 nM | 68 nM | CCCn1c(=O)c2[nH]c(-c3cc(C)n(CC(=O)Nc4ccc(F)cc4)n3)nc2n(CCC)c1=O [Example 5, 2-[3-(2,6-Dioxo-1,3-dipropyl-2,3,6,7-tetrahydro-1H-purin-8-yl)-5-methyl-pyrazol-1-yl]-N-(4-fluoro-phenyl)-acetamide] |
| > 1000 nM | 61 nM | CCCn1c(=O)c2[nH]c(-c3cc(C)n(CC(=O)Nc4ccc(OC)cc4)n3)nc2n(CCC)c1=O [Example 6, 2-[3-(2,6-Dioxo-1,3-dipropyl-2,3,6,7-tetrahydro-1H-purin-8-yl)-5-methyl-pyrazol-1-yl]-N-(4-methoxyphenyl)-acetamide] |
| > 1000 nM | 200 nM | CCCn1c(=O)c2[nH]c(-c3cc(C)n(CC(=O)Nc4ccc(C)c(C)c4)n3)nc2n(CCC)c1=O [Example 7, 2-[3-(2,6-Dioxo-1,3-dipropyl-2,3,6,7-tetrahydro-1H-purin-8-yl)-5-methyl-pyrazol-1-yl]-N-(3,4-dimethylphenyl)-acetamide] |
| > 1000 nM | 222 nM | CCCn1c(=O)c2[nH]c(-c3cc(C)n(CC(=O)Nc4ccc(OC)c(OC)c4)n3)nc2n(CCC)c1=O [Example 8, 2-[3-(2,6-Dioxo-1,3-dipropyl-2,3,6,7-tetrahydro-1H-purin-8-yl)-5-methyl-pyrazol-1-yl]-N-(3,4-dimethoxyphenyl)-acetamide] |
| > 1000 nM | 80 nM | CCCn1c(=O)c2[nH]c(-c3ccn(CC(=O)Nc4ccc(Cl)cc4)n3)nc2n(CCC)c1=O [Example 10, 2-[3-(2,6-Dioxo-1,3-dipropyl-2,3,6,7-tetrahydro-1H-purin-8-yl)-pyrazol-1-yl]-N-(4-chloro-phenyl)-acetamide] |
